The values that follow come from patent US20200369618A1, “ASYMMETRIC DERIVATIVES OF P[…] THE DIN[…], PROCESS OF PREPARING AND USE THEREOF” (NEARMEDIC INTERNATIONAL LIMITED, priority 2017, published 2020).

The structures appear in SMILES notation. Values after ≈ are worked out from the molar mass of the structure shown.

In data set [1] the test system is influenza virus A/Puerto Rico/8/34 (H1N1). The experiment in a line: organism not typed. Conditions: for SI (selectivity index, SI=CC50/IC50): CC50 in MDCK cells / IC50 against influenza A/Puerto Rico/8/34 (H1N1); for IC50: MDCK cells, influenza A/Puerto Rico/8/34 (H1N1), 48 hours, read-out: IC50 (compound concentration, at which 50% of virus titer is inhibited). Type of data set: cell-based.

Data set [2] is described as follows: Assessment of cytotoxic properties (MTS assay, 48 h). The format is cell-based. Conditions: dog, MDCK ECAAC cells, read-out: CC50 (toxic dose of the drug, causing the death of 50% of the monolayer cells). As to the method:
Assessment of cytotoxic properties of asymmetric gossypol derivatives.
In 96-well flat-bottomed test plates, MDCK ECAAC (Sigma cat. ? 85011435) cells are placed at 18,000 cells per well in a volume of 100 μl of complete medium containing 10% fetal calf serum (FCS). Cells are cultured for 24 hours in CO2-incubator at 37° C. Then the liquid medium is removed from the wells of the test plates, leaving the immobilized living cells. Then wells are once washed with the 100 μl of serumless media. The medium is replaced with 100 μl per well of the dilutions of test compounds in support medium with 2% of serum, in 4 replicates. Each plate is prepared with 6 control wells containing 100 μl of fresh support medium without test compounds. The plates are incubated in CO2-incubator at 37° C. for 48 hours. Then liquid contents are removed from the wells, and 100 μl of support medium and 20 μl of MTS (Promega, cat. ? G3581) are added and mixed. The cells are incubated for 3 hours in CO2-incubator at 37° C., and the relative optical density of the solution in each well is measured with a plate spectrophotometer at 492 nm against its absorption at a reference wavelength of 620 nm. The cytotoxicity (CC50) is calculated using the standard method.
On the technique in general: Tetrazolium dyes change colour on reduction, which living cells bring about.

As to `Cc1cc2c(C(C)C)c(O)c(O)cc2c(O)c1-c1c(C)cc2c(C(C)C)c(O)c(O)c(C=O)c2c1O` (racemic) [I, 1,1′,6,6′,7,7′-hexahydroxy-5,5′-diisopropyl-3,3′-dimethyl-2,2′-binaphthalene-8-carbaldehyde], in data set [1], the “SI (selectivity index, SI=CC50/IC50)” value is listed as 29,36 and the IC50 came out at 0.2 µg/mL (≈ 0.408 µM). In data set [2], the half-maximal cytotoxic concentration (CC50) at 48 h amounted to 5.5 µg/mL (≈ 11.2 µM).

With `Cc1cc2c(C(C)C)c(O)c(O)c(C=O)c2c(O)c1-c1c(C)cc2c(C(C)C)c(O)c(O)c(C=O)c2c1O` [Gossypol, gossypol, reference compound], in data set [1], the “SI (selectivity index, SI=CC50/IC50)” value is reported as 3,24 and the IC50 is 1.2 µg/mL (≈ 2.31 µM). Besides, the cytotoxic concentration (CC50) at 48 h in data set [2] worked out at 4 µg/mL (≈ 7.71 µM).

On to `CC1=C(C2=C(C)C(=O)c3c(c(C=O)c(O)c(O)c3C(C)C)C2=O)C(=O)c2cc(O)c(O)c(C(C)C)c2C1=O` [II, 6,6′,7,7′-tetrahydroxy-5,5′-diisopropyl-3,3′-dimethyl-1,1′,4,4′-tetraoxo-1,1′,4,4′-tetrahydro-2,2′-binaphthalene-8-carbaldehyde], for which, in data set [1], the “SI (selectivity index, SI=CC50/IC50)” value is listed as 4,75 and the IC50 was 0.8 µg/mL (≈ 1.54 µM). Also, in data set [2], the cytotoxic concentration (CC50) at 48 h came to 3.8 µg/mL (≈ 7.33 µM).

What is called CC50 is the concentration at which the toxic effect on the cells reaches its halfway point.
